Earlier results as cited in US20080286343A1, “Solid form” (priority 2007, published 2008).

Conditions: g water per 1 g active; slightly soluble

Cn1c(=O)c2[nH]cnc2n(C)c1=O [Theophylline]
Solubility in water (1 g in ... g water): 100-1000 g water
